Measurements reported in the NIST ThermoML archive (doi:10.1016/j.jct.2005.04.017).

Assay: mn = molality of the nth substance listed, in mol/kg
Details: Liquid, Capillary tube (Ostwald / Ubbelohde) method

O=[N+]([O-])[O-].O=[N+]([O-])[O-].[Ni+2] [nickel(II) nitrate] + O
viscosity [mPa·s]
Details	100 kPa	10000 kPa	20000 kPa	30000 kPa
297.86 K, m1 = 1.824	1.671	1.672	1.672	1.673
297.86 K, m1 = 2.246	1.973	1.973	1.974	1.974
297.98 K, m1 = 0.608	1.078	1.077	1.077	1.078
298.43 K, m1 = 0.218	0.9454	0.9468	0.9471	0.9482
298.64 K, m1 = 0.951	1.193	1.194	1.194	1.194
298.65 K, m1 = 0.153	0.9231	0.9246	0.9251	0.9261
298.65 K, m1 = 0.288	0.9601	0.9606	0.961	0.962
299.24 K, m1 = 0.05	0.884	0.8839	0.8843	0.8845
299.76 K, m1 = 1.368	1.348	1.348	1.349	1.35
309.84 K, m1 = 2.246	1.537	1.539	1.542	1.545
321.54 K, m1 = 0.05	0.5771	0.579	0.5797	0.582
322.46 K, m1 = 2.246	1.225	1.231	1.236	1.241
322.56 K, m1 = 0.153	0.5821	0.5872	0.592	0.5938
322.56 K, m1 = 0.288	0.6103	0.6122	0.613	0.6145
323.46 K, m1 = 0.608	0.6691	0.6724	0.6754	0.6781
323.67 K, m1 = 0.951	0.7503	0.7533	0.7564	0.7595
323.74 K, m1 = 0.218	0.5854	0.5895	0.5944	0.5968
324.76 K, m1 = 1.824	1.026	1.031	1.036	1.04
326.78 K, m1 = 1.368	0.8295	0.8341	0.8376	0.8422
330.84 K, m1 = 2.246	1.072	1.078	1.082	1.089
338.46 K, m1 = 1.368	0.703	0.7074	0.7123	0.7174
347.43 K, m1 = 0.288	0.4289	0.4346	0.4376	0.4422
347.65 K, m1 = 0.05	0.3939	0.3949	0.3964	0.4013
347.82 K, m1 = 2.246	0.843	0.8486	0.8534	0.8621
347.94 K, m1 = 0.218	0.4152	0.4194	0.4228	0.426
348.89 K, m1 = 0.153	0.401	0.4057	0.4091	0.4122
349.46 K, m1 = 0.951	0.5292	0.5331	0.5374	0.5411
349.76 K, m1 = 0.608	0.4664	0.4708	0.4742	0.4779
349.76 K, m1 = 1.368	0.6103	0.6146	0.6194	0.6253
349.76 K, m1 = 1.824	0.722	0.728	0.7335	0.738
364.21 K, m1 = 2.246	0.6918	0.698	0.705	0.7104
372.46 K, m1 = 0.153	0.3059	0.3101	0.314	0.3166
372.48 K, m1 = 0.218	0.3134	0.3179	0.3212	0.3248
372.49 K, m1 = 1.368	–	0.4771	0.4824	0.4869
372.54 K, m1 = 0.05	0.2921	0.2949	0.2984	0.3015
372.84 K, m1 = 1.824	0.5558	0.5612	0.5672	0.5721
373.06 K, m1 = 0.288	–	0.3246	0.3275	0.3318
373.82 K, m1 = 0.608	–	0.36	0.3643	0.3681
375.48 K, m1 = 2.246	–	0.619	0.6251	0.6322
375.81 K, m1 = 0.951	0.395	0.399	0.4042	0.407
394.58 K, m1 = 2.246	–	0.5162	0.5211	0.5279
394.68 K, m1 = 0.05	–	0.2391	0.2416	0.2449
396.43 K, m1 = 0.951	–	0.3329	0.3365	0.3403
397.82 K, m1 = 0.153	–	0.2441	0.2474	0.2509
398.42 K, m1 = 0.288	–	0.2566	0.2608	0.2633
398.49 K, m1 = 0.608	–	0.289	0.293	0.2967
398.61 K, m1 = 0.218	–	0.249	0.2532	0.2549
399.46 K, m1 = 1.368	–	0.3743	0.3789	0.384
399.46 K, m1 = 1.824	–	0.4393	0.4445	0.4496
412.58 K, m1 = 2.246	–	0.4452	0.4505	0.4568
416.89 K, m1 = 1.368	–	0.327	0.3311	0.3363
421.95 K, m1 = 0.05	–	0.1929	0.1958	0.1985
422.49 K, m1 = 1.824	–	0.3682	0.3726	0.378
422.81 K, m1 = 0.288	–	0.2142	0.2168	0.2198
422.83 K, m1 = 0.951	–	0.2731	0.2767	0.2807
423.73 K, m1 = 0.608	–	0.2402	0.2435	0.2468
424.57 K, m1 = 0.153	–	0.1989	0.203	0.205
424.57 K, m1 = 0.218	–	0.2053	0.2081	0.2119
426.84 K, m1 = 2.246	–	0.4007	0.4063	0.4124
426.89 K, m1 = 1.368	–	0.3051	0.3095	0.3134
446.79 K, m1 = 2.246	–	0.3515	0.3578	0.3622
447.26 K, m1 = 1.368	–	0.2684	0.2714	0.276
448.24 K, m1 = 1.824	–	0.3116	0.3159	0.3211
448.96 K, m1 = 0.288	–	0.1818	0.1845	0.1878
449.28 K, m1 = 0.153	–	0.1703	0.1741	0.1764
449.46 K, m1 = 0.608	–	0.205	0.2085	0.2114
449.48 K, m1 = 0.951	–	0.2309	0.2347	0.2382
449.65 K, m1 = 0.05	–	0.1611	0.1639	0.1661
449.72 K, m1 = 0.218	–	0.175	0.1778	0.1807
471.51 K, m1 = 0.153	–	0.151	0.1534	0.1565
472.15 K, m1 = 0.05	–	0.142	0.1447	0.1468
472.46 K, m1 = 2.246	–	0.304	0.3094	0.314
473.12 K, m1 = 1.824	–	0.2716	0.2768	0.2808
473.87 K, m1 = 0.288	–	0.1591	0.1628	0.1645
474.24 K, m1 = 0.218	–	0.1536	0.156	0.1592
474.83 K, m1 = 0.608	–	0.1805	0.1834	0.186
475.84 K, m1 = 1.368	–	0.23	0.2342	0.2375
